{"source": "paper PMC6218569", "about": "“Structural and Functional Characterization of PA14/Flo5-Like Adhesins From Komagataella pastoris” (Frontiers in Microbiology, 2018)", "key": {"Cea1A (=KpFlo1A) [1]": {"target": "T1, Cea1A (=KpFlo1A) (Komagataella pastoris, UniProt A0A1B2J5V1)", "T1 construct": "gene ATY40_BA7500007; A domain, D78-E296, N-terminally His6-tagged", "T1 sequence (A0A1B2J5V1 entry or part of it)": "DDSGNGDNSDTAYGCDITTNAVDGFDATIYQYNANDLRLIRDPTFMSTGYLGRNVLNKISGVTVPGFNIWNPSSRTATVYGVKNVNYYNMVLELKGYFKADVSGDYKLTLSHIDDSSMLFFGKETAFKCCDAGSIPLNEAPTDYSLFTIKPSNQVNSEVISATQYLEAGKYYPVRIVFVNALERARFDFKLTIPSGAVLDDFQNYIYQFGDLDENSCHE", "assay": "ITC and co-crystal structure ([…] Å)", "type": "binding", "conditions": "read-out: Cea1A•N,N′-diacetylchitobiose"}, "Cea1A (=KpFlo1A) [2]": {"target": "T1, Cea1A (=KpFlo1A)", "assay": "weak binding KD (Supplementary Figure S6), validated by fluorescence titration"}, "Cea1A (=KpFlo1A) [3]": {"target": "T1, Cea1A (=KpFlo1A)", "assay": "ITC and co-crystal structure ([…] Å)", "type": "binding"}}}
{"smiles": "CC(=O)N[C@H]1[C@H](O[C@H]2[C@H](O)[C@@H](NC(C)=O)C(O)O[C@@H]2CO)O[C@H](CO)[C@@H](O)[C@@H]1O", "note": "(stereo partly drawn) [N,N′-diacetylchitobiose]", "values": [{"measurement": "Kd", "setting": "Cea1A (=KpFlo1A) [1]", "result": "13.1 ± 3.56", "unit": "µM"}]}
{"smiles": "OC[C@H]1OC(O)[C@H](O)[C@@H](O)[C@@H]1O", "note": "(stereo partly drawn) [glucose]", "values": [{"measurement": "Kd", "setting": "Cea1A (=KpFlo1A) [2]", "result": 2380, "unit": "µM"}]}
{"smiles": "CC(=O)N[C@@H]1[C@@H](O)[C@H](O)[C@@H](CO)O[C@H]1O", "note": "[GlcNAc]", "values": [{"measurement": "Kd", "setting": "Cea1A (=KpFlo1A) [3]", "result": "7.67 ± 0.49", "unit": "µM"}]}
